# Source: patent US12091409B2, “Ether linked triazoles as NRF2 activators” (ASTEX THERAPEUTICS LIMITED, priority 2016, dated 2024)
# pEC50: −log10 of the molar value. Counter-ions that a name gives are not always drawn.
# System: NQO1 specific enzyme activity in BEAS-2B cells (marker for NRF2 activation)
# Test: BEAS-2B NQO1 MTT Assay
# Type: cell-based
# Conditions: Homo sapiens, BEAS-2B, 48 h, NQO1 specific activity induction, 48 hours with compound
# Text: NAD(P)H:quinone oxidoreductase 1 (NQO1), also called DT diaphorase, is a homodimeric FAD-containing enzyme that catalyzes obligatory NAD(P)H-dependent two-electron reductions of quinones and protects cells against the toxic and neoplastic effects of free radicals and reactive oxygen species arising from one-electron reductions. The transcription of NQO1 is finely regulated by NRF2, and thus NQO1 activity is a good marker for NRF2 activation. On day one, frozen BEAS-2B cells (ATCC) were thawed in a water bath, counted, and re-suspended at a concentration of 250,000 cells/mL. Fifty microliters of cells were plated in 384 well black clear-bottomed plates. Plates were incubated at 37° C., 5% CO2 overnight. On day two, plates were centrifuged and 50 nL of compound or controls were added to the cells. Plates were then incubated at 37° C., 5% CO2 for 48 hours. On day four, medium was aspirated from the plate and crude cell lysates were made by adding 13 uL of 1× Cell Signaling Technologies lysis buffer with 1 Complete, Mini, EDTA-free Protease Inhibitor Tablet (Roche) for each 10 mL of lysis buffer. After lysis plates were incubated for 20 minutes at room temperature. Two microliters of lysate were removed for use in Cell Titer Glo assay (Promega) and MTT cocktail was prepared (Prochaska et. al. 1998) for measurement of NQO1 activity. Fifty microliters of MTT cocktail was added to each well, plate was centrifuged, and analyzed on an Envision plate reader (Perkin Elmer) using Absorbance 570 nm label for 30 minutes. Product formation was measured kinetically and the pEC50 of NQO1 specific activity induction was calculated by plotting the change in absorbance (Delta OD/min) versus the log of compound concentration followed by 3-parameter fitting.
# pEC50 is the negative log of the EC50.
# EC50s<1 nM (+++++), EC50s 1 nM-10 nM (++++), EC50s 10 nM-100 nM (+++), EC50s 100 nM-1 uM (++), EC50s 1 uM-10 uM (+); EC50s>10 uM (−), or were not determined (ND).
row,Compound,pEC50
1,"CC[C@H]1Cc2cccnc2CN(Cc2cc([C@@H](OCc3cn(CC)nn3)C(C)(C)C(=O)O)ccc2C)C1 [Example 115, (R)-methyl 3-((1-ethyl-1H-1,2,3-triazol-4-yl)-methoxy)-3-(3-((S)-6-ethyl-6,7-dihydro-5H-pyrido[2,3-c]azepin-8(9H)-yl)methyl)-4-methylphenyl)-2,2-dimethyl-propanoic acid, trifluoroacetate]",8.00 to 9.00
2,"CCn1cc(CO[C@@H](c2ccc(C)c(CN3C[C@H](C)Cc4ccccc4S3(=O)=O)c2)C(C)(C)C(=O)O)nn1 [Example 65, (3S)-((1-ethyl-1H-1,2,3-triazol-4-yl)methoxy)-2,2-dimethyl-3-(4-methyl-3-(((R)-4-methyl-1,1-dioxido-4,5-dihydrobenzo[f][1,2]thiazepin-2(3H)-yl)methyl)phenyl)propanoic acid]",6.00 to 7.00
3,"CCn1cc(CO[C@H](c2ccc(C)c(CN3C[C@H](C)Cc4ncccc4S3(=O)=O)c2)C(C)(C)C(=O)O)nn1 [Example 68, (3R)-((1-ethyl-1H-1,2,3-triazol-4-yl)methoxy)-2,2-dimethyl-3-(4-methyl-3-(((R)-4-methyl-1,1-dioxido-4,5-dihydropyrido[2,3-f][1,2]thiazepin-2(3H)-yl)methyl)phenyl)propanoic acid]",7.00 to 8.00
4,"Cc1ccc(C(OCc2cn(Cc3cccc(CN=[N+]=[N-])c3)nn2)C(C)(C)C(=O)O)cc1CN1C[C@@H](C)Oc2ccccc2S1(=O)=O (stereo partly drawn) [Example 3, 3-((1-(3-(Azidomethyl)benzyl)-1H-1,2,3-triazol-4-yl)methoxy)-2,2-dimethyl-3-(4-methyl-3-(((R)-4-methyl-1,1-dioxido-3,4-dihydro-2H-benzo[b][1,4,5]oxathiazepin-2-yl)methyl)phenyl)propanoic acid]",> 9.00
5,"CC[C@@H]1CN(Cc2cc(C(OCc3cn(CCOC)nn3)C(C)(C)C(=O)O)ccc2C)S(=O)(=O)c2ccccc2O1 (stereo partly drawn) [Example 106, 3-(3-(((R)-4-ethyl-1,1-dioxido-3,4-dihydro-2H-benzo[b][1,4,5]oxathiazepin-2-yl)methyl)-4-methylphenyl)-3-((1-(2-methoxyethyl)-1H-1,2,3-triazol-4-yl)methoxy)-2,2-dimethylpropanoic acid]",> 9.00
6,"CC[C@@H]1CN(Cc2cc([C@H](OCc3cn(CC)nn3)C(C)(C)C(=O)O)ccc2C)S(=O)(=O)c2ccccc2O1 [Example 6, (S)-3-(3-(((R)-4-ethyl-1,1-dioxido-3,4-dihydro-2H-benzo[b][1,4,5]oxathiazepin-2-yl)methyl)-4-methylphenyl)-3-((1-ethyl-1H-1,2,3-triazol-4-yl)methoxy)-2,2-dimethylpropanoic acid]",8.00 to 9.00
7,"CCCn1cc(CO[C@H](c2ccc(C)c(CN3C[C@H](C)Cc4ccncc4S3(=O)=O)c2)C(C)(C)C(=O)O)nn1 [Example 67, (R)-2,2-dimethyl-3-(4-methyl-3-(((R)-4-methyl-1,1-dioxido-4,5-dihydropyrido[4,3-f][1,2]thiazepin-2(3H)-yl)methyl)phenyl)-3-((1-propyl-1H-1,2,3-triazol-4-yl)methoxy)propanoic acid]",6.00 to 7.00
8,"CCn1cc(CO[C@H](c2ccc(C)c(CN3C[C@H](C)Cc4ccncc4S3(=O)=O)c2)C(C)(C)C(=O)O)nn1 [Example 66, (3R)-((1-ethyl-1H-1,2,3-triazol-4-yl)methoxy)-2,2-dimethyl-3-(4-methyl-3-(((R)-4-methyl-1,1-dioxido-4,5-dihydropyrido[4,3-f][1,2]thiazepin-2(3H)-yl)methyl)phenyl)propanoic acid]",6.00 to 7.00
9,"CCn1cc(CO[C@H](c2ccc(C)c(CN(Cc3cccc(C(=O)O)c3)S(=O)(=O)c3ccccc3)c2)C(C)(C)C(=O)O)nn1 [Example 91, (R)-3-((N-(5-(2-carboxy-1-((1-ethyl-1H-1,2,3-triazol-4-yl)methoxy)-2-methylpropyl)-2-methylbenzyl)phenylsulfonamido)methyl)benzoic acid]",5.00 to 6.00
10,"Cc1ccc(C(OCc2cn(CC3CCNCC3)nn2)C(C)(C)C(=O)O)cc1CN1C[C@@H](C)Oc2ccccc2S1(=O)=O (stereo partly drawn) [Example 53, 2,2-Dimethyl-3-(4-methyl-3-(((R)-4-methyl-1,1-dioxido-3,4-dihydro-2H-benzo[b][1,4,5]oxathiazepin-2-yl)methyl)phenyl)-3-((1-(piperidin-4-ylmethyl)-1H-1,2,3-triazol-4-yl)methoxy)propanoic Acid, Formic Acid Salt]",6.00 to 7.00
11,"CC(=O)N1CCC(Cn2cc(COC(c3ccc(C)c(CN4C[C@@H](C)Oc5ccccc5S4(=O)=O)c3)C(C)(C)C(=O)O)nn2)CC1 (stereo partly drawn) [Example 32, 3-((1-((1-Acetylpiperidin-4-yl)methyl)-1H-1,2,3-triazol-4-yl)methoxy)-2,2-dimethyl-3-(4-methyl-3-(((R)-4-methyl-1,1-dioxido-3,4-dihydro-2H-benzo[b][1,4,5]oxathiazepin-2-yl)methyl)phenyl)propanoic acid]",7.00 to 8.00
12,"Cc1ccc(C(OCc2cn(CC3CCN(C(=O)c4ccccc4)CC3)nn2)C(C)(C)C(=O)O)cc1CN1C[C@@H](C)Oc2ccccc2S1(=O)=O (stereo partly drawn) [Example 31, 3-((1-((1-Benzoylpiperidin-4-yl)methyl)-1H-1,2,3-triazol-4-yl)methoxy)-2,2-dimethyl-3-(4-methyl-3-(((R)-4-methyl-1,1-dioxido-3,4-dihydro-2H-benzo[b][1,4,5]oxathiazepin-2-yl)methyl)phenyl)propanoic acid]",7.00 to 8.00
13,"CCn1cc(COC(c2ccc(C)c(CN(C3CCCCC3)S(=O)(=O)c3ccccc3)c2)C(C)(C)C(=O)O)nn1 (centres unmarked) [Example 98, 3-(3-((N-cyclohexylphenylsulfonamido)methyl)-4-methylphenyl)-3-((1-ethyl-1H-1,2,3-triazol-4-yl)methoxy)-2,2-dimethylpropanoic acid]",7.00 to 8.00
14,"Cc1ccc(C(OCc2cn(Cc3cccc(Cn4cc(C(C)(C)O)nn4)c3)nn2)C(C)(C)C(=O)O)cc1CN1C[C@@H](C)Oc2ccccc2S1(=O)=O (stereo partly drawn) [Example 41, 3-((1-(3-((4-(2-Hydroxypropan-2-yl)-1H-1,2,3-triazol-1-yl)methyl)benzyl)-1H-1,2,3-triazol-4-yl)methoxy)-2,2-dimethyl-3-(4-methyl-3-(((R)-4-methyl-1,1-dioxido-3,4-dihydro-2H-benzo[b][1,4,5]oxathiazepin-2-yl)methyl)phenyl)propanoic acid]",7.00 to 8.00
15,"CC[C@@H]1CN(Cc2cc(C(OCc3cn(Cc4cccc(-c5ccc(C(=O)O)cc5)c4)nn3)C(C)(C)C(=O)O)ccc2C)S(=O)(=O)c2ccccc2O1 (stereo partly drawn) [Example 22, 3′-((4-((2-Carboxy-1-(3-(((R)-4-ethyl-1,1-dioxido-3,4-dihydro-2H-benzo[b][1,4,5]oxathiazepin-2-yl)methyl)-4-methylphenyl)-2-methylpropoxy)methyl)-1H-1,2,3-triazol-1-yl)methyl)-[1,1′-biphenyl]-4-carboxylic acid]",8.00 to 9.00
16,"CC[C@@H]1CN(Cc2cc(C(OCc3cn(Cc4cccc(C(=O)O)c4)nn3)C(C)(C)C(=O)O)ccc2C)S(=O)(=O)c2ccccc2O1 (stereo partly drawn) [Example 21, 3-((4-((2-Carboxy-1-(3-(((R)-4-ethyl-1,1-dioxido-3,4-dihydro-2H-benzo[b][1,4,5]oxathiazepin-2-yl)methyl)-4-methylphenyl)-2-methylpropoxy)methyl)-1H-1,2,3-triazol-1-yl)methyl)benzoic acid]",6.00 to 7.00
17,"COCCn1cc(CO[C@H](c2ccc(C)c(CN(Cc3ccccn3)S(=O)(=O)c3cccc(C(=O)O)c3)c2)C(C)(C)C(=O)O)nn1 [Example 93, (R)-3-(N-(5-(2-carboxy-1-((1-(2-methoxyethyl)-1H-1,2,3-triazol-4-yl)methoxy)-2-methylpropyl)-2-methylbenzyl)-N-(pyridin-2-ylmethyl)sulfamoyl)benzoic acid]",6.00 to 7.00
18,"Cc1ccc(C(OCc2cn(Cc3cccc(Cn4cc(CC(=O)O)nn4)c3)nn2)C(C)(C)C(=O)O)cc1CN1C[C@@H](C)Oc2ccccc2S1(=O)=O (stereo partly drawn) [Example 44, 3-((1-(3-((4-(Carboxymethyl)-1H-1,2,3-triazol-1-yl)methyl)benzyl)-1H-1,2,3-triazol-4-yl)methoxy)-2,2-dimethyl-3-(4-methyl-3-(((R)-4-methyl-1,1-dioxido-3,4-dihydro-2H-benzo[b][1,4,5]oxathiazepin-2-yl)methyl)phenyl)propanoic acid]",6.00 to 7.00
19,"Cc1cc(Cn2cc(CO)nn2)cc(Cn2cc(COC(c3ccc(C)c(CN4C[C@@H](C)Oc5ccccc5S4(=O)=O)c3)C(C)(C)C(=O)O)nn2)c1 (stereo partly drawn) [Example 29, 3-((1-(3-((4-(Hydroxy-methyl)-1H-1,2,3-triazol-1-yl)methyl)-5-methylbenzyl)-1H-1,2,3-triazol-4-yl)methoxy)-2,2-dimethyl-3-(4-methyl-3-(((R)-4-methyl-1,1-dioxido-3,4-dihydro-2H-benzo[b][1,4,5]oxathiazepin-2-yl)methyl)phenyl)propanoic acid]",7.00 to 8.00

# Same assay, conditions: NQO1 specific activity induction, 48 hours with compound
row,Compound,pEC50
1,"Cc1ccc(C(OCc2cn(C3COC3)nn2)C(C)(C)C(=O)O)cc1CN1C[C@@H](C)Cc2ccncc2S1(=O)=O (single isomer, unassigned) [Example 102]",7.00 to 8.00
